# Data: patent US20240376100A1 (Redona Therapeutics, Inc., priority 2021, published 2024)
# Biological target: PAPD5 enzyme (Homo sapiens, UniProt Q8NDF8)
# Test: PAPD5 assay (AMP incorporation onto 3'-terminus of RNA substrate, fluorescence quench)
# Assay type: biochemical
# Settings: PAPD5 protein 0.3 nM, ATP 50 μM, 30 minutes preincubation, room temperature; read-out: Potency PAPD5 IC50
# Method in brief: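 Enzyme at 0.3 nM with 50 μM ATP, pH 7.3 HEPES buffer, preincubated with compound 30 minutes at room temperature; 5 nM 5′-fluorescein RNA substrate and 20 nM TAMRA quench probe then added. Initial rates from kinetic fluorescein decrease over ~90 minutes; IC50 by four-parameter fit.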
# Sequence of PAPD5 enzyme (Q8NDF8 whole entry): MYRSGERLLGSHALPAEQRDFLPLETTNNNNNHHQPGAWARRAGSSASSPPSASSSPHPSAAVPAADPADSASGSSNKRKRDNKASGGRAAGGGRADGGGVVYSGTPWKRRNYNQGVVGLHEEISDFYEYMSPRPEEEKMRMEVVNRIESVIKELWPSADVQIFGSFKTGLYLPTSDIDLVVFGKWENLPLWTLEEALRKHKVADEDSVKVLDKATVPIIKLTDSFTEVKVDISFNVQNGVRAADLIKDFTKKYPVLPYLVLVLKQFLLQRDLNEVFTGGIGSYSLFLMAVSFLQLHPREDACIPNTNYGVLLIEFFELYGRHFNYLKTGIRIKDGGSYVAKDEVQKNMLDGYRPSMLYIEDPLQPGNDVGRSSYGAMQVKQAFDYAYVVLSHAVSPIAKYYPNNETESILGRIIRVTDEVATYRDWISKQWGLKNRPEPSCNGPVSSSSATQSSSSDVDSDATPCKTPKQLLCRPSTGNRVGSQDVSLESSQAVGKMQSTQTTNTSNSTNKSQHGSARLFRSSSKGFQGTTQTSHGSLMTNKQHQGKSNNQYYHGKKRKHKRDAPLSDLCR
row,Compound,IC50 [nM]
1,"Cc1cc(N)ncc1-n1cc(C(=O)O)c(=O)c2ccc(N3Cc4ccccc4C3)c(F)c21 [Example 155, 1-(6-amino-4-methylpyridin-3-yl)-8-fluoro-7-(isoindolin-2-yl)-4-oxo-1,4-dihydroquinoline-3-carboxylic acid]",≤ 1000
2,"Cc1cc(NC(=O)OC(C)(C)C)ncc1-n1cc(C(=O)O)c(=O)c2ccc(N3Cc4cccnc4C3)c(F)c21 [Example 156, 1-(6-((tert-butoxycarbonyl)amino)-4-methylpyridin-3-yl)-7-(5,7-dihydro-6H-pyrrolo[3,4-b]pyridin-6-yl)-8-fluoro-4-oxo-1,4-dihydroquinoline-3-carboxylic acid]",≤ 1000
3,"Cc1cc(N)ncc1-n1cc(C(=O)O)c(=O)c2cc(Cl)c(N3Cc4ccccc4C3)nc21 [Example 157, 1-(6-amino-4-methylpyridin-3-yl)-6-chloro-7-(isoindolin-2-yl)-4-oxo-1,4-dihydro-1,8-naphthyridine-3-carboxylic acid]",≤ 1000
4,"Cc1cc(N)ncc1-n1cc(C(=O)O)c(=O)c2cc(Cl)c(N3Cc4cccc(F)c4C3)nc21 [Example 158, 1-(6-amino-4-methylpyridin-3-yl)-6-chloro-7-(4-fluoroisoindolin-2-yl)-4-oxo-1,4-dihydro-1,8-naphthyridine-3-carboxylic acid]",≤ 1000
5,"Cc1cc(N)ncc1-n1cc(C(=O)O)c(=O)c2cc(Cl)c(N3Cc4ccncc4C3)nc21 [Example 159, 1-(6-amino-4-methylpyridin-3-yl)-6-chloro-7-(1,3-dihydro-2H-pyrrolo[3,4-c]pyridin-2-yl)-4-oxo-1,4-dihydro-1,8-naphthyridine-3-carboxylic acid]",≤ 1000
6,"Cc1cc(N)ncc1-n1cc(C(=O)O)c(=O)c2cc(Cl)c(N3Cc4ccc(F)cc4C3)nc21 [Example 160, 1-(6-amino-4-methylpyridin-3-yl)-6-chloro-7-(5-fluoroisoindolin-2-yl)-4-oxo-1,4-dihydro-1,8-naphthyridine-3-carboxylic acid]",≤ 1000
7,"COc1ccc2c(c1)CN(c1nc3c(cc1Cl)c(=O)c(C(=O)O)cn3-c1cnc(N)cc1C)C2 [Example 161, 1-(6-amino-4-methylpyridin-3-yl)-6-chloro-7-(5-methoxyisoindolin-2-yl)-4-oxo-1,4-dihydro-1,8-naphthyridine-3-carboxylic acid]",≤ 1000
8,"Cc1cc(N)ncc1-n1cc(C(=O)O)c(=O)c2cc(Cl)c(-n3ccc(N(C)C)n3)nc21 [Example 162, 1-(6-amino-4-methylpyridin-3-yl)-6-chloro-7-(3-(dimethylamino)-1H-pyrazol-1-yl)-4-oxo-1,4-dihydro-1,8-naphthyridine-3-carboxylic acid]",≤ 1000
9,"Cc1cc(NC(=O)OC(C)(C)C)ncc1-n1cc(C(=O)O)c(=O)c2cc(Cl)c(-n3cccn3)nc21 [Example 164, 1-(6-((tert-butoxycarbonyl)amino)-4-methylpyridin-3-yl)-6-chloro-4-oxo-7-(1H-pyrazol-1-yl)-1,4-dihydro-1,8-naphthyridine-3-carboxylic acid]",≤ 1000
10,"Cc1cc(NC(=O)OC(C)(C)C)ncc1-n1cc(C(=O)O)c(=O)c2cc(Cl)c(N3Cc4ccccc4C3)nc21 [Example 165, 1-(6-((tert-butoxycarbonyl)amino)-4-methylpyridin-3-yl)-6-chloro-7-(isoindolin-2-yl)-4-oxo-1,4-dihydro-1,8-naphthyridine-3-carboxylic acid]",≤ 1000
11,"Cc1cc(NC(=O)OC(C)(C)C)ncc1-n1cc(C(=O)O)c(=O)c2cc(Cl)c(N3Cc4cccc(F)c4C3)nc21 [Example 166, 1-(6-((tert-butoxycarbonyl)amino)-4-methylpyridin-3-yl)-6-chloro-7-(4-fluoroisoindolin-2-yl)-4-oxo-1,4-dihydro-1,8-naphthyridine-3-carboxylic acid]",≤ 1000
12,"Cc1cc(NC(=O)OC(C)(C)C)ncc1-n1cc(C(=O)O)c(=O)c2cc(Cl)c(N3Cc4ccncc4C3)nc21 [Example 167, 1-(6-((tert-butoxycarbonyl)amino)-4-methylpyridin-3-yl)-6-chloro-7-(1,3-dihydro-2H-pyrrolo[3,4-c]pyridin-2-yl)-4-oxo-1,4-dihydro-1,8-naphthyridine-3-carboxylic acid]",≤ 1000
13,"CNc1cc(C)c(-n2cc(C(=O)O)c(=O)c3cc(Cl)c(N4Cc5cccnc5C4)nc32)cn1 [Example 170, 6-chloro-7-(5,7-dihydro-6H-pyrrolo[3,4-b]pyridin-6-yl)-1-(4-methyl-6-(methylamino)pyridin-3-yl)-4-oxo-1,4-dihydro-1,8-naphthyridine-3-carboxylic acid]",≤ 1000
14,"CNCCNc1cc(C)c(-n2cc(C(=O)O)c(=O)c3cc(Cl)c(N4Cc5cccnc5C4)nc32)cn1 [Example 171, 6-chloro-7-(5,7-dihydro-6H-pyrrolo[3,4-b]pyridin-6-yl)-1-(4-methyl-6-((2-(methylamino)ethyl)amino)pyridin-3-yl)-4-oxo-1,4-dihydro-1,8-naphthyridine-3-carboxylic acid]",≤ 1000
15,"Cc1cc(NCCN2CCCCC2)ncc1-n1cc(C(=O)O)c(=O)c2cc(Cl)c(N3Cc4cccnc4C3)nc21 [Example 172, 6-chloro-7-(5,7-dihydro-6H-pyrrolo[3,4-b]pyridin-6-yl)-1-(4-methyl-6-((2-(piperidin-1-yl)ethyl)amino)pyridin-3-yl)-4-oxo-1,4-dihydro-1,8-naphthyridine-3-carboxylic acid]",≤ 1000
16,"Cc1cc(NC(=O)C2CCC2)ncc1-n1cc(C(=O)O)c(=O)c2cc(Cl)c(N3Cc4cccnc4C3)nc21 [Example 174, 6-chloro-1-(6-(cyclobutanecarboxamido)-4-methylpyridin-3-yl)-7-(5,7-dihydro-6H-pyrrolo[3,4-b]pyridin-6-yl)-4-oxo-1,4-dihydro-1,8-naphthyridine-3-carboxylic acid]",≤ 1000
17,"Cc1cc(NC(=O)OC(C)(C)C)ncc1-n1cc(C(=O)O)c(=O)c2cc(Cl)c(N3CCc4ccccc4C3)nc21 [Example 175, 1-(6-((tert-butoxycarbonyl)amino)-4-methylpyridin-3-yl)-6-chloro-7-(3,4-dihydroisoquinolin-2(1H)-yl)-4-oxo-1,4-dihydro-1,8-naphthyridine-3-carboxylic acid]",≤ 1000
18,"Cc1cc(N)ncc1-n1cc(C(=O)O)c(=O)c2cc(Cl)c(N3CCc4ccccc4C3)nc21 [Example 176, 1-(6-amino-4-methylpyridin-3-yl)-6-chloro-7-(3,4-dihydroisoquinolin-2(1H)-yl)-4-oxo-1,4-dihydro-1,8-naphthyridine-3-carboxylic acid]",≤ 1000
19,"Cc1cc(N(C)CCN2CCCCC2)ncc1-n1cc(C(=O)O)c(=O)c2cc(Cl)c(N3Cc4cccnc4C3)nc21 [Example 177, 6-chloro-7-(5,7-dihydro-6H-pyrrolo[3,4-b]pyridin-6-yl)-1-(4-methyl-6-(methyl(2-(piperidin-1-yl)ethyl)amino)pyridin-3-yl)-4-oxo-1,4-dihydro-1,8-naphthyridine-3-carboxylic acid]",≤ 1000
20,"COc1cccc2c1CN(c1nc3c(cc1Cl)c(=O)c(C(=O)O)cn3-c1cnc(N)cc1C)C2 [Example 178, 1-(6-amino-4-methylpyridin-3-yl)-6-chloro-7-(4-methoxyisoindolin-2-yl)-4-oxo-1,4-dihydro-1,8-naphthyridine-3-carboxylic acid]",≤ 1000
21,"Cc1cc(N)ncc1-n1cc(C(=O)O)c(=O)c2cc(Cl)c(N3Cc4cncnc4C3)nc21 [Example 179, 1-(6-amino-4-methylpyridin-3-yl)-6-chloro-7-(5,7-dihydro-6H-pyrrolo[3,4-d]pyrimidin-6-yl)-4-oxo-1,4-dihydro-1,8-naphthyridine-3-carboxylic acid]",≤ 1000
22,"Cc1cc(N)ncc1-n1cc(C(=O)O)c(=O)c2cc(Cl)c(N3CCc4cccnc4C3)nc21 [Example 180, 1-(6-amino-4-methylpyridin-3-yl)-6-chloro-7-(5,8-dihydro-1,7-naphthyridin-7(6H)-yl)-4-oxo-1,4-dihydro-1,8-naphthyridine-3-carboxylic acid]",≤ 1000
23,"Cc1cc(N)ncc1-n1cc(C(=O)O)c(=O)c2cc(F)c(N3CCc4ccccc4C3)cc21 [Example 181, 1-(6-amino-4-methylpyridin-3-yl)-7-(3,4-dihydroisoquinolin-2(1H)-yl)-6-fluoro-4-oxo-1,4-dihydroquinoline-3-carboxylic acid]",≤ 1000
24,"Cc1cc(NC(=O)OC(C)(C)C)ncc1-n1cc(C(=O)O)c(=O)c2cc(Cl)c(N3CCc4cccnc4C3)nc21 [Example 182, 1-(6-((tert-butoxycarbonyl)amino)-4-methylpyridin-3-yl)-6-chloro-7-(5,8-dihydro-1,7-naphthyridin-7(6H)-yl)-4-oxo-1,4-dihydro-1,8-naphthyridine-3-carboxylic acid]",≤ 1000
25,"Cc1cc(N2CCC2)ncc1-n1cc(C(=O)O)c(=O)c2cc(F)c(N3Cc4cccnc4C3)nc21 [Example 183, 1-(6-(azetidin-1-yl)-4-methylpyridin-3-yl)-7-(5,7-dihydro-6H-pyrrolo[3,4-b]pyridin-6-yl)-6-fluoro-4-oxo-1,4-dihydro-1,8-naphthyridine-3-carboxylic acid]",≤ 1000
26,"Cc1cc(NC(=O)OC(C)(C)C)ncc1-n1cc(C(=O)O)c(=O)c2cc(F)c(N3CCc4ccccc4C3)cc21 [Example 184, 1-(6-((tert-butoxycarbonyl)amino)-4-methylpyridin-3-yl)-7-(3,4-dihydroisoquinolin-2(1H)-yl)-6-fluoro-4-oxo-1,4-dihydroquinoline-3-carboxylic acid]",≤ 1000
27,"Cc1cc(N)ncc1-n1cc(C(=O)O)c(=O)c2cc(Cl)c(N3CCc4ccncc4C3)nc21 [Example 185, 1-(6-amino-4-methylpyridin-3-yl)-6-chloro-7-(3,4-dihydro-2,7-naphthyridin-2(1H)-yl)-4-oxo-1,4-dihydro-1,8-naphthyridine-3-carboxylic acid]",≤ 1000
28,"Cc1cc(N)ncc1-n1cc(C(=O)O)c(=O)c2cc(Cl)c(N3CCc4ncccc4C3)nc21 [Example 186, 1-(6-amino-4-methylpyridin-3-yl)-6-chloro-7-(7,8-dihydro-1,6-naphthyridin-6(5H)-yl)-4-oxo-1,4-dihydro-1,8-naphthyridine-3-carboxylic acid]",≤ 1000
